Values of other authors as cited in article PMC7914841, “Systemic Delivery of hGhrelin Derivative by Lyophilizate for Dry Powder Inhalation System in Monkeys” (Pharmaceutics, 2021).
Where no end group is shown, it is not given here. The star is where a group is joined. Octanoyl = CCCCCCCC(=O)*

Tested on: growth hormone (GH) release
Details: healthy humans, intravenously injected

Substance: ghrelin: peptide hormone of 28 amino acids, O-n-octanoylated at the 3rd serine residue (GSS(Octanoyl)FLSPEHQRVQQRKESKKPPAKLQPR; UniProt Q9UBU3 24-51, looked up)
- ratio of AUC of GH, 5 µg/kg vs 1 µg/kg: 1.3–1.6 times
